Measurements: ChEMBL document CHEMBL4673179 (RSC Med Chem, 2020)
In brackets after ≈: the same amount, converted by molar mass. *1 amine or outer side, *2 acyl side, *3 side chain or, on linkers, in order; H or OH if unused. Where a SMILES comes first, the peptide text is derived from it. The star is where a group is joined. ξ: configuration not given here. DAMPA = CN(Cc1cnc2nc(N)nc(N)c2n1)c1ccc(C(=O)*)cc1; ξγGlu = O=C(O)C(CCC(=O)[*:2])N[*:1]

What was measured:
[1] = tested on: MCF7; test: Antiproliferative activity against human MCF7 assessed as reduction in cell number at 10 uM measured after 6 days in presence of 100 uM AICAR by sulforhodamine B assay relative to control; type: functional; parameters: scale not given: the % may be the effect or the level left; conditions: time 6 day
[2] = tested on: MCF7; test: Cytotoxicity against human MCF7 cells incubated for 72 hrs by SRB assay; type: functional, cell-based; conditions: MCF7, 72 h
[3] = tested on: MDA-MB-231; test: Synergistic antiproliferative activity against human MDA-MB-231 cells assessed as cell survival rate at 0.1 uM incubated for 72 hrs in presence of alpha-tocopherol measured every 24 hrs by MTT assay relative to control; type: functional; conditions: read-out: Survival
[4] = tested on: MDA-MB-231; test: Synergistic antiproliferative activity against human MDA-MB-231 cells assessed as cell survival rate at 10 uM incubated for 72 hrs in presence of alpha-tocopherol measured every 24 hrs by MTT assay relative to control; type: functional; conditions: read-out: Survival
[5] = tested on: MCF7; test: Antitumor activity against human MCF7 cells xenografted in BALB/c nude mouse assessed as tumor growth inhibition at 50 mg/kg, ip administered once per week for 2 weeks relative to control; type: functional; conditions: 336 h, read-out: TGI
[6] = tested on: MCF7; test: Synergistic antitumor activity against human MCF7 cells xenografted in BALB/c nude mouse assessed as tumor growth inhibition at 50 mg/kg, ip administered once per week for 2 weeks in presence of AICA riboside relative to control; type: functional; conditions: 336 h, read-out: TGI
[7] = tested on: MCF7; test: Antineoplastic activity against human MCF7 cells incubated for 72 hrs by prestoblue reduction assay; type: functional, cell-based; conditions: MCF7, 72 h
[8] = Drug metabolism in human assessed as carboxypeptidase-G2 (unknown origin)- mediated drug conversion to DAMPA and glutamate; type: ADME
[9] = Drug excretion in patient bile at 10 mg/m2, po by HPLC method; type: ADME, organism-based; conditions: human, read-out: Drug excretion
[10] = Blood brain barrier permeability in iv dosed human; type: ADME, organism-based
[11] = target: Albumin (Homo sapiens, UniProt P02768); test: Binding affinity to human serum albumin by Scatchard plot; type: ADME, cell-free
[12] = Half life in plasma (unknown origin); type: ADME, cell-free
[13] = Oral bioavailability in pediatric patient at > 40 mg/m2; type: ADME, organism-based; conditions: human, in vivo
[14] = Oral bioavailability in pediatric patient at <= 40 mg/m2; type: ADME, organism-based; conditions: human, in vivo
[15] = Aqueous solubility of compound; type: physicochemical; conditions: aqueous medium
[16] = tested on: MDA-MB-231; test: Cytotoxicity against human MDA-MB-231 cells incubated for 30 mins by CellTiter-Glo luminescent Cell viability assay; type: functional, cell-based; conditions: MDA-MB-231, 0.5 h
[17] = tested on: MCF7; test: Antitumor activity against human MCF7 cells xenografted in BALB/c nude mouse assessed as tumor growth inhibition at 200 mg/kg, ip administered every other day for 2 weeks relative to control; type: functional; conditions: 336 h, read-out: TGI

Chain of Albumin (P02768 whole entry): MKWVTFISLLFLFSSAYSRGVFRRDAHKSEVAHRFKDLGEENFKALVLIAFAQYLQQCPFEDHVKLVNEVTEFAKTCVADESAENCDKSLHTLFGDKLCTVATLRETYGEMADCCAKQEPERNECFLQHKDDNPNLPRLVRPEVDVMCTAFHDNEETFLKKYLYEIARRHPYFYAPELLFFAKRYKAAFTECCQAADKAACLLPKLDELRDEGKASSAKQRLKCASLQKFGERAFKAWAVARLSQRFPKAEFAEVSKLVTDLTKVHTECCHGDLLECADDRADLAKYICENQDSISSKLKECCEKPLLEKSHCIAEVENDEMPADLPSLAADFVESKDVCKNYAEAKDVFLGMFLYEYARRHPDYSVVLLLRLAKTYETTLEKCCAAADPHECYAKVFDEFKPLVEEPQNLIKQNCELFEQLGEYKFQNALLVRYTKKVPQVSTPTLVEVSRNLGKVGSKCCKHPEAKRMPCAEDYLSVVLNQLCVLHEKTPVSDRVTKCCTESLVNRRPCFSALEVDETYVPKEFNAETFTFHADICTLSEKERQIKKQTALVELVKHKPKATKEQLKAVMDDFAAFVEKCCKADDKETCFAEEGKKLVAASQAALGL

CN(Cc1cnc2nc(N)nc(N)c2n1)c1ccc(C(=O)N[C@@H](CCC(=O)O)C(=O)O)cc1 [METHOTREXATE]
Activity [1]: 50% | IC50 [2]: > 22000 nM | viability at 0.1 µM [3]: > 60% | viability at 10 µM [4]: 35% | inhibition in vivo at 50 mg/kg [5]: 55% | inhibition in vivo at 50 mg/kg [6]: 79.9% | IC50 [7]: 15 nM | Drug metabolism [8]: > 98% | dose excreted [9]: 8.7% | pBBB [10]: 1.7% | K [11]: 820 M⁻¹ | half-life [12]: 2 h | bioavailability [13]: 18% | bioavailability [14]: 42% | solubility [15]: 10 µg/mL (≈ 22 µM)

CC[C@H](C)[C@H](NC(=O)[C@H](C)NC(=O)[C@@H](NC(=O)[C@H](Cc1ccc(O)cc1)NC(=O)CNC(=O)CCC(NC(=O)c1ccc(N(C)Cc2cnc3nc(N)nc(N)c3n2)cc1)C(=O)O)[C@@H](C)O)C(=O)N[C@@H](C)C(=O)N[C@@H](Cc1c[nH]c2ccccc12)C(=O)N[C@H](C(=O)N[C@@H](CCCCN)C(=O)N[C@@H](C)C(=O)N[C@@H](Cc1ccccc1)C(=O)N[C@H](C(=O)N[C@@H](CCCNC(=N)N)C(=O)N[C@@H](CCCCN)C(=O)N[C@@H](CC(C)C)C(=O)N[C@@H](CCCNC(=N)N)C(=O)N[C@@H](CCCCN)C(N)=O)[C@@H](C)CC)C(C)C (stereo partly drawn) ({DAMPA-ξγGlu}-GYTAIAWVKAFIRKLRK-NH2)
EC50 [16]: 3800 nM

COc1cccc2c1C(=O)c1c(O)c3c(c(O)c1C2=O)C[C@@](O)(C(=O)CO)C[C@@H]3O[C@H]1C[C@H](N)[C@@H](O)[C@H](C)O1 [EPIRUBICIN]
IC50 [2]: 550 nM

NC(=O)c1ncn([C@@H]2O[C@H](CO)[C@@H](O)[C@H]2O)c1N [ACADESINE]
inhibition in vivo at 200 mg/kg [17]: 42.2%
